This assay concerns C2C12 myoblasts. As to the kind of experiment: C2C12 myoblast differentiation. It is filed as cell-based, mouse. The note with it: C2C12, 30 μM myriocin vs DMSO. The method, then:
Cell culture and cell transfection. The C2C12 mouse myoblast cell line was obtained from the American Type Culture Collection (CRL-1772™). C2C12 cells or clones were cultured in growth medium consisting of Dulbecco's modified Eagle's medium (Gibco, 41966-029), 20% Fetal Bovine Serum (Gibco, 10270-106) and 100 U/mL penicillin and […] streptomycin (Gibco, 15140-122). To induce differentiation, FBS was substituted with 2% horse serum (Gibco, 16050-122). Trypsin-EDTA 0.05% (GIBCO, 25300-062) was used to detach cells. Human skeletal muscle cells were obtained from Lonza (SkMC, #CC-2561) and cultured in growth medium consisting of DMEM/F12 (Gibco, 10565018), 20% Fetal Bovine Serum (Gibco, 10270-106) and 100 U/mL penicillin and […] streptomycin (Gibco, 15140-122). To induce differentiation, FBS was reduced to 2% and kept in culture. All cells were maintained at 37° C. with 5% CO2. Cell transfections were done using TransiT (Mirus) according to the manufacturer's protocol with a 3:1 ratio of transfection agent to DNA. C2C12 cells were grown confluent, and 30 μM myriocin or DMSO was added and cells were kept in growth medium for another 3 days. Sptlc1 clones were plated to reach confluency simultaneously and were kept in growth medium for 3 days before using them for immunocytochemistry or RNA isolation. The concentration of myriocin in medium for all experiments was 30 μM. A stock solution of 20 mM myriocin in DMSO was used dissolve myriocin, and a corresponding volume of DMSO without myriocin was used as control.
RNA isolation and real time qPCR. RNA was isolated using the RNeasy Mini kit (Qiagen, 74106) and reverse transcribed with the High-Capacity-RNA-to-cDNA kit (Thermo Fisher, 4387406). Gene expression was measured by qPCR using the Power SybrGreen Master mix (Thermo Fisher, 4367659). All quantitative polymerase chain reaction (PCR) results were calculated relative to the mean of the housekeeping gene Gapdh. The average of two technical replicates was used for each biological data point.
Immunocytochemistry. C2C12 cells cultured on a sterilized cover slip in 6-well plates (Greiner bio-one, CELLSTAR, 657160) were fixed in Fixx solution (Thermo Scientific, 9990244) for 15 min and permeabilized in 0.1% Triton X-100 (Amresco, 0694) solution for 15 min at room temperature. Cells were blocked in 3% BSA for 1 h at room temperature to avoid unspecific antibody binding and then incubated with primary antibody over night at 4° C. with gentle shaking. […] The immunofluorescence images were acquired using either fluorescence or confocal microscopy. The myofusion index was calculated as the ratio of nuclei within myotubes to total nuclei. The myotube diameter was measured for 8 myotubes per image using ImageJ. Myotube area was calculated as the total area covered by myotubes.

For the compound `CCCCCCC(=O)CCCCCCC=CCC(O)C(O)C(N)(CO)C(=O)O` (stereo not shown) [myriocin, 2-Amino-3,4-dihydroxy-2-(hydroxymethyl)-14-oxoicos-6-enoic acid], the fusion index entry was “greater”; the myoblast differentiation entry is recorded as “accelerated”; the “myogenic transcript signature (Myog, Myh4, Myh1)” value was “upregulation”; the myotube area entry is recorded as “greater”.

The values are drawn from patent US20220288004A1, “TREATMENT AND PREVENTION OF AGING RELATED-DISEASE AND/OR AGING BY THE INHIBITION OF SPHINGOLIPIDS” (ECOLE POLYTECHNIQUE FEDERALE DE LAUSANNE (EPFL), priority 2019, published 2022).
